In ChEMBL document CHEMBL1275550, “In vitro activity of doripenem, a carbapenem for the treatment of challenging infections caused by gram-negative bacteria, against recent clinical isolates from the United States” (2008):
≈ marks a conversion by molar mass, not a printed value.

Key:
Serratia marcescens [1] = assay: Antimicrobial activity against Ceftazidime susceptible Serratia marcescens assessed as resistant isolate by broth microdilution method; assay type: functional
Pseudomonas aeruginosa [2] = assay: Antimicrobial activity against Ceftazidime non-susceptible Pseudomonas aeruginosa by broth microdilution method; assay type: functional
Pseudomonas aeruginosa [3] = assay: Antimicrobial activity against Pseudomonas aeruginosa isolated from non-ICU patient by broth microdilution method
Acinetobacter [4] = assay: Antimicrobial activity against imipenem non-susceptible Acinetobacter assessed as susceptible isolate by broth microdilution method; assay type: functional
Pseudomonas aeruginosa [5] = assay: Antimicrobial activity against imipenem non-susceptible Pseudomonas aeruginosa assessed as susceptible isolate by broth microdilution method; assay type: functional
Proteus mirabilis [6] = assay: Antimicrobial activity against Non-ESBL Proteus mirabilis by broth microdilution method; assay type: functional
Serratia marcescens [7] = assay: Antimicrobial activity against Ceftazidime susceptible Serratia marcescens assessed as susceptible isolate by broth microdilution method; assay type: functional
Pseudomonas aeruginosa [8] = assay: Antimicrobial activity against Pseudomonas aeruginosa isolated from ICU patient assessed as intermediate isolate by broth microdilution method
Pseudomonas aeruginosa [9] = assay: Antimicrobial activity against Pseudomonas aeruginosa isolated from ICU patient assessed as susceptible isolate by broth microdilution method
Acinetobacter [10] = assay: Antimicrobial activity against imipenem non-susceptible Acinetobacter assessed as intermediate isolate by broth microdilution method; assay type: functional
Citrobacter [11] = assay: Antimicrobial activity against Citrobacter with nonderepressed AmpC beta-lactamsae by broth microdilution method; assay type: functional
Proteus mirabilis [12] = assay: Antimicrobial activity against ESBL producing Proteus mirabilis by broth microdilution method; assay type: functional
Escherichia coli [13] = assay: Antimicrobial activity against ESBL producing Escherichia coli by broth microdilution method; assay type: functional
Klebsiella pneumoniae [14] = assay: Antimicrobial activity against Non-ESBL Klebsiella pneumoniae by broth microdilution method; assay type: functional
Pseudomonas aeruginosa [15] = assay: Antimicrobial activity against Ceftazidime non-susceptible Pseudomonas aeruginosa assessed as resistant isolate by broth microdilution method; assay type: functional
Proteus mirabilis [16] = assay: Antimicrobial activity against Non-ESBL Proteus mirabilis assessed as intermediate isolate by broth microdilution method; assay type: functional
Pseudomonas aeruginosa [17] = assay: Antimicrobial activity against Pseudomonas aeruginosa isolated from non-ICU patient assessed as resistant isolate by broth microdilution method
Enterobacteriaceae [18] = assay: Antimicrobial activity against Ceftazidime non-susceptible Enterobacteriaceae assessed as susceptible isolate by broth microdilution method; assay type: functional
Escherichia coli [19] = assay: Antimicrobial activity against ESBL producing Escherichia coli assessed as intermediate isolate by broth microdilution method; assay type: functional
Enterobacter cloacae [20] = assay: Antimicrobial activity against Enterobacter cloacae with nonderepressed AmpC beta-lactamsae assessed as susceptible isolate by broth microdilution method; assay type: functional
Pseudomonas aeruginosa [21] = assay: Antimicrobial activity against Ceftazidime non-susceptible Pseudomonas aeruginosa assessed as susceptible isolate by broth microdilution method; assay type: functional
Klebsiella pneumoniae [22] = assay: Antimicrobial activity against Non-ESBL Klebsiella pneumoniae assessed as susceptible isolate by broth microdilution method; assay type: functional
Escherichia coli [23] = assay: Antimicrobial activity against Non-ESBL Escherichia coli by broth microdilution method; assay type: functional
Acinetobacter [24] = assay: Antimicrobial activity against imipenem susceptible Acinetobacter assessed as intermediate isolate by broth microdilution method; assay type: functional
Citrobacter [25] = assay: Antimicrobial activity against Citrobacter with nonderepressed AmpC beta-lactamsae assessed as resistant isolate by broth microdilution method; assay type: functional
Serratia marcescens [26] = assay: Antimicrobial activity against Ceftazidime non-susceptible Serratia marcescens assessed as susceptible isolate by broth microdilution method; assay type: functional
Pseudomonas aeruginosa [27] = assay: Antimicrobial activity against imipenem non-susceptible Pseudomonas aeruginosa assessed as intermediate isolate by broth microdilution method; assay type: functional
Citrobacter [28] = assay: Antimicrobial activity against Citrobacter with derepressed AmpC beta-lactamsae assessed as intermediate isolate by broth microdilution method; assay type: functional
Enterobacteriaceae [29] = assay: Antimicrobial activity against Ceftazidime non-susceptible Enterobacteriaceae assessed as resistant isolate by broth microdilution method; assay type: functional
Klebsiella pneumoniae [30] = assay: Antimicrobial activity against ESBL producing Klebsiella pneumoniae by broth microdilution method; assay type: functional
Klebsiella pneumoniae [31] = assay: Antimicrobial activity against Non-ESBL Klebsiella pneumoniae assessed as intermediate isolate by broth microdilution method; assay type: functional
Escherichia coli [32] = assay: Antimicrobial activity against Non-ESBL Escherichia coli assessed as intermediate isolate by broth microdilution method; assay type: functional
Enterobacter cloacae [33] = assay: Antimicrobial activity against Enterobacter cloacae with derepressed AmpC beta-lactamsae assessed as susceptible isolate by broth microdilution method; assay type: functional
Enterobacteriaceae [34] = assay: Antimicrobial activity against ceftazidime-susceptible Enterobacteriaceae assessed as susceptible isolate by broth microdilution method; assay type: functional

CC(C)(O/N=C(\C(=O)N[C@@H]1C(=O)N2C(C(=O)[O-])=C(C[n+]3ccccc3)CS[C@H]12)c1csc(N)n1)C(=O)O [CEFTAZIDIME]
Activity (Serratia marcescens [1]): 0% | MIC50 (Pseudomonas aeruginosa [2]): 32 µg/mL (≈ 58.5 µM) | MIC90 (Pseudomonas aeruginosa [2]): > 32 µg/mL | Activity (Pseudomonas aeruginosa [3]): 87.3% | Activity (Acinetobacter [4]): 15.7% | Activity (Pseudomonas aeruginosa [5]): 76.3% | MIC (Proteus mirabilis [6]): ≤ 0.03 µg/mL | MIC50 (Proteus mirabilis [6]): ≤ 0.03 µg/mL | MIC90 (Proteus mirabilis [6]): 0.06 µg/mL (≈ 0.11 µM) | Activity (Serratia marcescens [7]): 100% | Activity (Pseudomonas aeruginosa [8]): 5.8% | Activity (Pseudomonas aeruginosa [9]): 79.9% | Activity (Acinetobacter [10]): 0% | MIC50 (Citrobacter [11]): 0.25 µg/mL (≈ 0.457 µM) | MIC90 (Citrobacter [11]): 1 µg/mL (≈ 1.83 µM) | MIC (Proteus mirabilis [12]): 8 µg/mL (≈ 14.6 µM) | MIC50 (Escherichia coli [13]): 32 µg/mL (≈ 58.5 µM) | MIC90 (Escherichia coli [13]): > 32 µg/mL | MIC50 (Klebsiella pneumoniae [14]): 0.12 µg/mL (≈ 0.22 µM) | MIC90 (Klebsiella pneumoniae [14]): 0.5 µg/mL (≈ 0.915 µM) | Activity (Pseudomonas aeruginosa [15]): 76.4% | Activity (Proteus mirabilis [16]): 0.2% | Activity (Pseudomonas aeruginosa [17]): 10.4% | Activity (Enterobacteriaceae [18]): 0% | Activity (Escherichia coli [19]): 10% | Activity (Enterobacter cloacae [20]): 93.6% | Activity (Pseudomonas aeruginosa [21]): 0% | Activity (Klebsiella pneumoniae [22]): 99.2% | MIC50 (Escherichia coli [23]): 0.12 µg/mL (≈ 0.22 µM) | MIC90 (Escherichia coli [23]): 0.25 µg/mL (≈ 0.457 µM) | Activity (Acinetobacter [24]): 5.5% | Activity (Citrobacter [25]): 1.3% | Activity (Serratia marcescens [26]): 0% | Activity (Pseudomonas aeruginosa [27]): 5.3% | Activity (Citrobacter [28]): 0% | Activity (Enterobacteriaceae [29]): 92.4% | MIC50 (Klebsiella pneumoniae [30]): > 32 µg/mL | MIC90 (Klebsiella pneumoniae [30]): > 32 µg/mL | Activity (Klebsiella pneumoniae [31]): 0.3% | Activity (Escherichia coli [32]): 0.5% | Activity (Enterobacter cloacae [33]): 1% | Activity (Enterobacteriaceae [34]): 100%
